Laboratory results taken from patent US20230012368A1 (Hoffmann-La Roche Inc., priority 2018, published 2023).
Counter-ions that a name gives are not always drawn. Like-named read-outs stand apart in the source and are kept apart here.

System: Acinetobacter baumannii ATCC 17978
Experiment: Antimicrobial susceptibility testing: 90% growth inhibitory concentration (IC90) determination
Type: cell-based
Conditions: 90% growth inhibitory concentration, Acinetobacter baumannii ATCC17978, Iso-Sensitest broth, OD 600 nm over 16h, read-out: ATCC17978 IC90
Procedure, shortened: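 Compounds serially twofold diluted (e.g. 50 to 0.097 μM final) in Iso-Sensitest broth, inoculated at ~5×10^(5) CFU/ml, incubated at 35±2° C. OD600 read every 20 minutes over 16h. IC90 taken as concentration inhibiting 90% of growth during logarithmic phase.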

[1] = Acinetobacter baumannii, ATCC17978, 16 h

| Structure (SMILES) | IC90 [nM] | IC90 [1] [nM] |
| --- | --- | --- |
| COc1ccc(-c2cnc3c(Nc4ccc(C(=O)N(C)CC5CNC5)c(C)c4)nccn23)cc1F [Example 384, N-(azetidin-3-ylmethyl)-4-[[3-(3-fluoro-4-methoxyphenyl)imidazo[1,2-a]pyrazin-8-yl]amino]-N,2-dimethylbenzamide] | 880 |  |
| CCc1cc(Nc2nccn3c(-c4ccc(Cl)c(F)c4F)cnc23)ccc1C(=O)NCCCN1CCC1 [Example 386, N-[3-(azetidin-1-yl)propyl]-4-[[3-(4-chloro-2,3-difluorophenyl)imidazo[1,2-a]pyrazin-8-yl]amino]-2-ethylbenzamide] |  | 950 |
| CCc1cc(Nc2nccn3c(-c4ccc(OC)c(F)c4F)cnc23)ccc1C(=O)NCCC1CCNCC1 [Example 388, 4-[[3-(2,3-difluoro-4-methoxyphenyl)imidazo[1,2-a]pyrazin-8-yl]amino]-2-ethyl-N-(2-piperidin-4-ylethyl)benzamide; hydrochlo-ride] |  | 200 |
| CCc1cc(Nc2nccn3c(-c4ccc(OC)c(F)c4Cl)cnc23)ccc1C(=O)NCCCN [Example 389, N-(3-aminopropyl)-4-[[3-(2-chloro-3-fluoro-4-methoxyphenyl)imidazo[1,2-a]pyrazin-8-yl]amino]-2-ethylbenzamide; hydrochloride] | 500 |  |
| COc1ccc(-c2cnc3c(Nc4ccc5c(c4)CCCNC5=O)nccn23)cc1F [Example 390, 7-[[3-(3-fluoro-4-methoxy-phenyl)imidazo[1,2-a]pyrazin-8-yl]amino]-2,3,4,5-tetrahydro-2-benzazepin-1-one hydrochloride] |  | 220 |
| COc1ccc(-c2cnc3c(Nc4ccc5c(c4)CCN(C)C5=O)nccn23)c(F)c1F [Example 391, 6-[[3-(2,3-difluoro-4-methoxy-phenyl)imidazo[1,2-a]pyrazin-8-yl]amino]-2-methyl-3,4-dihydroisoquinolin-1-one] |  | 51 |
| COc1ccc(-c2cnc3c(Nc4ccc(C(=O)NCCCN)c(CCF)c4)nccn23)c(F)c1F [Example 392, N-(3-aminopropyl)-4-[[3-(2,3-difluoro-4-methoxy-phenyl)imidazo[1,2-a]pyrazin-8-yl]amino]-2-(2-fluoroethyl)benzamide] |  | 340 |
| CCc1cc(Nc2nccn3c(-c4ccc(OC)c(F)c4F)cnc23)ccc1C(=O)NCCNC(=O)[C@@H](N)[C@@H](C)O [Example 393, N-[2-[[(2S,3R)-2-amino-3-hydroxy-butanoyl]amino]ethyl]-4-[[3-(2,3-difluoro-4-methoxy-phenyl)imidazo[1,2-a]pyrazin-8-yl]amino]-2-ethyl-benzamide; formic acid] |  | 260 |
| C#CCOc1ccc(-c2cnc3c(Nc4ccc(C(=O)NCCCN)c(CC)c4)nccn23)c(F)c1F [Example 394, N-(3-aminopropyl)-4-[[3-(2,3-difluoro-4-prop-2-ynoxy-phenyl)imidazo[1,2-a]pyrazin-8-yl]amino]-2-ethyl-benzamide; formic acid] |  | 310 |
| CN(CCCSc1nc(=O)c(=O)[nH]n1C)C(=O)c1ccc(Nc2nccn3c(-c4ccc(OCC#N)c(F)c4F)cnc23)cc1Cl [Example 395, 2-chloro-4-((3-(4-(cyanomethoxy)-2,3-difluorophenyl)imidazo[1,2-a]pyrazin-8-yl)amino)-N-methyl-N-(3-((2-methyl-5,6-dioxo-1,2,5,6-tetrahydro-1,2,4-triazin-3-yl)thio)propyl)benzamide] |  | 740 |
| CN(CCCn1c(=O)c(=O)[nH]n(C)c1=S)C(=O)c1ccc(Nc2nccn3c(-c4ccc(OCC#N)c(F)c4F)cnc23)cc1Cl [Example 396, 2-chloro-4-((3-(4-(cyanomethoxy)-2,3-difluorophenyl)imidazo[1,2-a]pyrazin-8-yl)amino)-N-methyl-N-(3-(2-methyl-5,6-dioxo-3-thioxo-1,2,4-triazinan-4-yl)propyl)benzamide] |  | 570 |
| CCc1cc(Nc2nccn3c(-c4ccc(OC)c(F)c4F)cnc23)ccc1C(=O)NCCNC(=O)[C@@H](N)CCCN [Example 397, N-[2-[[(2S)-2,5-diaminopentanoyl]amino]eth-yl]-4-[[3-(2,3-difluoro-4-methoxy-phenyl)imidazo[1,2-a]pyrazin-8-yl]amino]-2-ethyl-benzamide; formic acid] |  | 410 |
| CCc1cc(Nc2nccn3c(-c4ccc(OC)c(F)c4F)cnc23)ccc1C(=O)NCCNC(=O)[C@@H](N)CCCCN [Example 398, N-[2-[[(2S)-2,6-diaminohexanoyl]amino]eth-yl]-4-[[3-(2,3-difluoro-4-methoxy-phenyl)imidazo[1,2-a]pyrazin-8-yl]amino]-2-ethyl-benzamide; formic acid] |  | 410 |
| CCc1cc(Nc2nccn3c(-c4ccc(OC)c(F)c4F)cnc23)ccc1C(=O)NCCNC(=O)[C@@H](N)CCN [Example 399, N-[2-[[(2S)-2,4-diaminobutanoyl]amino]ethyl]-4-[[3-(2,3-difluoro-4-methoxy-phenyl)imidazo[1,2-a]pyrazin-8-yl]amino]-2-ethyl-benzamide; formic acid] |  | 380 |
| CCc1cc(Nc2nccn3c(-c4ccc(OC)c(F)c4F)cnc23)ccc1C(=O)NCCNC(=O)[C@@H](N)CN [Example 400, N-[2-[[(2S)-2,3-diaminopropanoyl]amino]eth-yl]-4-[[3-(2,3-difluoro-4-methoxy-phenyl)imidazo[1,2-a]pyrazin-8-yl]amino]-2-ethyl-benzamide; formic acid] |  | 320 |
| CCc1cc(Nc2nccn3c(-c4ccc(OC(F)F)c(F)c4F)cnc23)ccc1C(=O)NC(C)CCN (stereo not drawn) [Example 402, N-(4-aminobutan-2-yl)-4-((3-(4-(difluoromethoxy)-2,3-difluorophenyl)imidazo[1,2-a]pyrazin-8-yl)amino)-2-ethylbenzamide hydrochloride] |  | 570 |
| CCc1cc(Nc2nccn3c(-c4ccc(OC)c(F)c4F)cnc23)ccc1C(=O)NCCCNC(=O)CC[C@H](NC(=O)[C@@H](N)CCCCN)C(=O)O [Example 403, N2-(L-lysyl)-N5-(3-(4-((3-(2,3-difluoro-4-methoxyphenyl)imidazo[1,2-a]pyrazin-8-yl)amino)-2-ethylbenzamido)propyl)-L-glutamine trihydrochloride] | 940 |  |
| CCc1cc(Nc2nccn3c(-c4ccc(OC(F)F)c(F)c4F)cnc23)ccc1C(=O)NCC(=O)NCCN(C)C [Example 404, 4-((3-(4-(difluoromethoxy)-2,3-difluorophenyl)imidazo[1,2-a]pyrazin-8-yl)amino)-N-(2-((2-(dimethylamino)ethyl)amino)-2-oxoethyl)-2-ethylbenzamide] |  | 360 |
| CCc1cc(Nc2nccn3c(-c4ccc(OC)c(F)c4F)cnc23)ccc1C(=O)NCCCNC(=O)[C@H](CCCNC(=N)N)NC(=O)CC[C@H](N)C(=O)O [Example 407, N5-((S)-1-((3-(4-((3-(2,3-difluoro-4-methoxyphenyl)imidazo[1,2-a]pyrazin-8-yl)amino)-2-ethylbenzamido)propyl)amino)-5-guanidino-1-oxopentan-2-yl)-L-glutamine trihydrochloride] |  | 940 |
| CCc1cc(Nc2nccn3c(-c4ccc(OC(F)F)c(F)c4F)cnc23)ccc1C(=O)NCC1(CO)COC(=O)N1 (stereo not drawn) [Example 409, 4-((3-(4-(difluoromethoxy)-2,3-difluorophenyl)imidazo[1,2-a]pyrazin-8-yl)amino)-2-ethyl-N-((4-(hydroxymethyl)-2-oxooxazolidin-4-yl)methyl)benzamide] |  | 450 |
| CCc1cc(Nc2nccn3c(-c4ccc(OC)c(F)c4F)cnc23)ccc1C(=O)NCC(O)CNC(=O)CCCN (stereo not drawn) [Example 410, N-(3-(4-aminobutanamido)-2-hydroxypropyl)-4-((3-(2,3-difluoro-4-methoxyphenyl)imidazo[1,2-a]pyrazin-8-yl)amino)-2-ethylbenzamide hydrochloride] |  | 210 |
| CCc1cc(Nc2nccn3c(-c4ccc(OC)c(F)c4F)cnc23)ccc1C(=O)NCC(O)CNC(=O)CC(O)CN (stereo not drawn) [Example 411, N-(3-(4-amino-3-hydroxybutanamido)-2-hydroxypropyl)-4-((3-(2,3-difluoro-4-methoxyphenyl)imidazo[1,2-a]pyrazin-8-yl)amino)-2-ethylbenzamide hydrochloride] |  | 320 |
| CCc1cc(Nc2nccn3c(-c4ccc(Oc5ccccn5)c(F)c4F)cnc23)ccc1C(=O)NCCNC(=O)[C@@H](N)CCCNC(=N)N [Example 417, N-[2-[[(2S)-2-amino-5-guanidino-pentanoyl]amino]ethyl]-4-[[3-[2,3-difluoro-4-(2-pyridyloxy)phenyl]imidazo [1,2-a]pyrazin-8-yl]amino]-2-ethyl-benzamide; formic acid] |  | 850 |
| CCc1cc(Nc2nccn3c(-c4ccc(OC)c(F)c4F)cnc23)ccc1C(=O)NCCCCCN [Example 418, N-(5-aminopentyl)-4-((3-(2,3-difluoro-4-methoxyphenyl)imidazo[1,2-a]pyrazin-8-yl)amino)-2-ethylbenzamide hydrochloride] |  | 33 |
| CCc1cc(Nc2nccn3c(-c4ccc(OCC#CCO)c(F)c4F)cnc23)ccc1C(=O)NCCCN [Example 419, N-(3-aminopropyl)-4-[[3-[2,3-difluoro-4-(4-hydroxybut-2-ynoxy)phenyl]imidazo[1,2-a]pyrazin-8-yl]amino]-2-ethyl-benzamide] |  | 670 |
| CCc1cc(Nc2nccn3c(-c4ccc(Oc5ccccn5)c(F)c4F)cnc23)ccc1C(=O)NCCNC(=O)[C@@H](N)CCNC(=N)N [Example 420, N-[2-[[(2S)-2-amino-4-guanidino-butanoyl]amino]ethyl]-4-[[3-[2,3-difluoro-4-(2-pyridyloxy)phenyl]imidazo [1,2-a]pyrazin-8-yl]amino]-2-ethyl-benzamide; formic acid] |  | 720 |
| CCc1cc(Nc2nccn3c(-c4ccc(Oc5ccccn5)c(F)c4F)cnc23)ccc1C(=O)NCCNC(=O)CCN [Example 421, N-[2-(3-aminopropanoylamino)ethyl]-4-[[3-[2,3-difluoro-4-(2-pyridyloxy)phenyl]imidazo [1,2-a]pyrazin-8-yl]amino]-2-ethyl-benzamide; formic acid] |  | 440 |
